Reference: PMC7456477, “Pharmacokinetic Study of Thirteen Ingredients after the Oral Administration of Flos Chrysanthemi Extract in Rats by UPLC-MS/MS” (BioMed Research International, 2020)

Tests used:
[1] = Pharmacokinetic study in rat plasma after oral administration of Flos Chrysanthemi extract (UPLC-MS/MS); type: in vivo, Sprague-Dawley rats; conditions: rats, oral Flos Chrysanthemi extract 10 g/kg; for Detection in plasma over the sampling time: result in words; for AUC(0-inf) / Cmax / Tmax / half-life / AUC / k el: male, Sprague-Dawley, rat, plasma, n = 6; for AUC: read-out: AUC(0 − tn); for k el: read-out: Ke (converted)
Protocol: Six male Sprague-Dawley rats (250 ± 5 g) were purchased from Huafukang Bioscience Co., Inc. (Beijing, China). The rats were adapted to the facility for a week. Before the experiments, rats were fasted for 12 h, although drinking water was readily accessible. Flos Chrysanthemi extract was dissolved in CMC-Na aqueous solution and orally administered to the animals once at 10 g/kg. Blood samples (220 μL) were taken from the orbital venous plexus of rats at 0, 0.03, 0.08, 0.17, 0.25, 0.5, 1, 2, 4, 6, 8, 10, 12, and 24 h after extract administration. Blood samples were promptly centrifuged at 6000 rpm for 10 min, and plasma samples were collected. The obtained plasma was stored at -80°C until analysis. “Drug and Statistics 3.0” software (Medical College of Wannan, China) was used to calculate pharmacokinetic parameters. The animal protocol was approved by the Animal Ethics Committee of Tianjin University of Traditional Chinese Medicine (TCM-LAEC20190056).
Plasma samples from rats orally administered with Flos Chrysanthemi extract (10.0 g/kg) were analysed with UPLC-MS/MS. Plasma concentration-time curves are shown in Figure 3, and the primary pharmacokinetic parameters of each analyte are summarized in Table 6.

[2] = Stability of analytes in rat plasma (QC samples under four storage conditions); type: in vitro ADME; conditions: n = 6
Protocol: To study the stability of all compounds in rat plasma, low, medium, and high concentrations of QC samples were tested under the following test conditions: stored at an autosampler for 12 hours, stored at room temperature for 6 hours, put through three freeze/thaw cycles, and stored at -80°C for 14 days. Three QC concentrations were tested for each of the above conditions.
The stability of all 13 analytes during sample collection and processing was evaluated with the various storage conditions being tested on spiked plasma samples at three QC concentrations.

[3] = spiked concentration 1000 ng/mL
[4] = spiked concentration 2000 ng/mL
[5] = spiked concentration 4000 ng/mL

Compound | Detection in plasma over the sampling time [1] | Measured concentration, -80°C for 14 days ([2]; spiked concentration 5 ng/mL) [ng/mL] | Measured concentration, Autosampler for 12 h ([2]; spiked concentration 5 ng/mL) [ng/mL] | Measured concentration, Room temperature for 6 h ([2]; spiked concentration 5 ng/mL) [ng/mL] | Measured concentration, Three freeze-thaw cycles ([2]; spiked concentration 5 ng/mL) [ng/mL] | Measured concentration, -80°C for 14 days ([2]; spiked concentration 50 ng/mL) [ng/mL] | Measured concentration, Autosampler for 12 h ([2]; spiked concentration 50 ng/mL) [ng/mL] | Measured concentration, Room temperature for 6 h ([2]; spiked concentration 50 ng/mL) [ng/mL] | Measured concentration, Three freeze-thaw cycles ([2]; spiked concentration 50 ng/mL) [ng/mL] | Measured concentration, -80°C for 14 days [2, 3] [ng/mL] | Measured concentration, Autosampler for 12 h [2, 3] [ng/mL] | Measured concentration, Three freeze-thaw cycles [2, 3] [ng/mL] | AUC(0-inf) [1] [ng·h/mL] | Cmax [1] [ng/mL] | Tmax [1] [min] | half-life [1] [min] | AUC [1] [ng·h/mL] | k el [1] [s⁻¹] | Measured concentration, -80°C for 14 days ([2]; spiked concentration 10 ng/mL) [ng/mL] | Measured concentration, Autosampler for 12 h ([2]; spiked concentration 10 ng/mL) [ng/mL] | also measured
O=c1c(O[C@@H]2O[C@H](CO)[C@H](O)[C@H](O)[C@H]2O)c(-c2ccc(O)c(O)c2)oc2cc(O)cc(O)c12 [Hyperoside] | detected only at the first few blood sampling points | 4.8 ± 0.2 | 3.9 ± 0.1 | 4.4 ± 0.1 | 5.7 ± 0.1 | 50.3 ± 1.8 | 41.8 ± 1.4 | 48.7 ± 1.9 | 54.5 ± 2.1 | 997.8 ± 19.4 | 803.4 ± 2.5 | 1110.2 ± 4.5 |  |  |  |  |  |  |  |  | 
O=C(/C=C/c1ccc(O)c(O)c1)O[C@@H]1[C@H](O)C[C@@](O)(C(=O)O)C[C@H]1OC(=O)/C=C/c1ccc(O)c(O)c1 [Isochlorogenic acid C] |  | 5.6 ± 0.1 | 4.6 ± 0.4 | 5.2 ± 0.2 | 5.9 ± 0.1 | 43.3 ± 0.3 | 45.1 ± 0.6 | 48.1 ± 0.8 | 55.3 ± 0.4 | 1080.3 ± 37.8 | 1047.3 ± 12.4 | 1052.4 ± 38.4 | 405 ± 228 | 101 ± 73.3 | 24 ± 18.6 | 14.4 ± 13.2 | 309 ± 149 | 0.0013 |  |  | Measured concentration, Room temperature for 6 h [2, 3]: 1049.2 ± 32.0 ng/mL
O=C(O)[C@H]1O[C@@H](Oc2cc(O)c3c(=O)cc(-c4ccc(O)c(O)c4)oc3c2)[C@H](O)[C@@H](O)[C@@H]1O [Luteolin 7-O-glucuronide] |  |  |  |  |  |  |  |  |  |  |  |  | 6730 ± 2280 | 749 ± 195 | 30 ± 16.2 | 370 ± 85.8 | 6450 ± 1810 | 3.33e-05 | 8.8 ± 0.2 | 9.6 ± 0.3 | Measured concentration, Room temperature for 6 h ([2]; spiked concentration 10 ng/mL): 10.9 ± 0.8 ng/mL; Measured concentration, Three freeze-thaw cycles ([2]; spiked concentration 10 ng/mL): 11.1 ± 0.1 ng/mL; Measured concentration, -80°C for 14 days ([2]; spiked concentration 100 ng/mL): 99.7 ± 0.3 ng/mL; Measured concentration, Autosampler for 12 h ([2]; spiked concentration 100 ng/mL): 90.7 ± 0.4 ng/mL; Measured concentration, Room temperature for 6 h ([2]; spiked concentration 100 ng/mL): 110.9 ± 1.2 ng/mL; Measured concentration, Three freeze-thaw cycles ([2]; spiked concentration 100 ng/mL): 112.6 ± 0.5 ng/mL; Measured concentration, -80°C for 14 days [2, 4]: 1930.7 ± 22.5 ng/mL; Measured concentration, Autosampler for 12 h [2, 4]: 1960.1 ± 38.5 ng/mL; Measured concentration, Room temperature for 6 h [2, 4]: 2214.4 ± 17.9 ng/mL; Measured concentration, Three freeze-thaw cycles [2, 4]: 2225.7 ± 9.3 ng/mL
O=c1cc(-c2ccc(O)c(O)c2)oc2cc(O)cc(O)c12 [Luteolin] |  |  |  |  |  |  |  |  |  |  |  |  | 25100 ± 2230 | 2080 ± 307 | 30 | 533 ± 241 | 24200 ± 2110 | 2.78e-05 |  |  | Measured concentration, -80°C for 14 days ([2]; spiked concentration 20 ng/mL): 17.4 ± 0.3 ng/mL; Measured concentration, Autosampler for 12 h ([2]; spiked concentration 20 ng/mL): 21.3 ± 0.4 ng/mL; Measured concentration, Room temperature for 6 h ([2]; spiked concentration 20 ng/mL): 20.3 ± 0.3 ng/mL; Measured concentration, Three freeze-thaw cycles ([2]; spiked concentration 20 ng/mL): 23.2 ± 0.7 ng/mL; Measured concentration, -80°C for 14 days ([2]; spiked concentration 200 ng/mL): 195.1 ± 2.6 ng/mL; Measured concentration, Autosampler for 12 h ([2]; spiked concentration 200 ng/mL): 181.7 ± 0.8 ng/mL; Measured concentration, Room temperature for 6 h ([2]; spiked concentration 200 ng/mL): 193.5 ± 3.3 ng/mL; Measured concentration, Three freeze-thaw cycles ([2]; spiked concentration 200 ng/mL): 223.7 ± 1.5 ng/mL; Measured concentration, -80°C for 14 days [2, 5]: 4195.2 ± 15.1 ng/mL; Measured concentration, Autosampler for 12 h [2, 5]: 3656.3 ± 33.7 ng/mL; Measured concentration, Room temperature for 6 h [2, 5]: 4419.0 ± 9.2 ng/mL; Measured concentration, Three freeze-thaw cycles [2, 5]: 4475.1 ± 11.8 ng/mL
COc1ccc(-c2cc(=O)c3c(O)cc(O[C@@H]4O[C@H](CO)[C@@H](O)[C@H](O)[C@H]4O)cc3o2)cc1 [Tilianin] | detected only at the first few blood sampling points |  |  |  |  |  |  |  |  |  |  |  |  |  |  |  |  |  | 10.2 ± 0.2 | 9.3 ± 0.1 | Measured concentration, -80°C for 14 days ([2]; spiked concentration 1 ng/mL): 0.9 ± 0.1 ng/mL; Measured concentration, Autosampler for 12 h ([2]; spiked concentration 1 ng/mL): 0.9 ± 0.1 ng/mL; Measured concentration, Room temperature for 6 h ([2]; spiked concentration 1 ng/mL): 1.1 ± 0.1 ng/mL; Measured concentration, Three freeze-thaw cycles ([2]; spiked concentration 1 ng/mL): 1.0 ± 0.1 ng/mL; Measured concentration, Room temperature for 6 h ([2]; spiked concentration 10 ng/mL): 9.9 ± 0.3 ng/mL; Measured concentration, Three freeze-thaw cycles ([2]; spiked concentration 10 ng/mL): 11.3 ± 0.2 ng/mL; Measured concentration, -80°C for 14 days ([2]; spiked concentration 200 ng/mL): 188.6 ± 0.9 ng/mL; Measured concentration, Autosampler for 12 h ([2]; spiked concentration 200 ng/mL): 179.0 ± 1.2 ng/mL; Measured concentration, Room temperature for 6 h ([2]; spiked concentration 200 ng/mL): 226.4 ± 0.2 ng/mL; Measured concentration, Three freeze-thaw cycles ([2]; spiked concentration 200 ng/mL): 209.6 ± 0.3 ng/mL
Isoquercitrin | detected only at the first few blood sampling points | 4.5 ± 0.1 | 4.0 ± 0.2 | 4.7 ± 0.2 | 5.6 ± 0.1 | 50.7 ± 2.1 | 41.6 ± 0.5 | 49.0 ± 1.2 | 54.5 ± 0.8 | 1006.3 ± 30.5 |  | 1110.5 ± 21.8 |  |  |  |  |  |  |  |  | 
